# Biological target: T1, hAHR (Homo sapiens, UniProt P35869)
# T1 construct: expressed in transfected cells
# T1 sequence (P35869 11-848): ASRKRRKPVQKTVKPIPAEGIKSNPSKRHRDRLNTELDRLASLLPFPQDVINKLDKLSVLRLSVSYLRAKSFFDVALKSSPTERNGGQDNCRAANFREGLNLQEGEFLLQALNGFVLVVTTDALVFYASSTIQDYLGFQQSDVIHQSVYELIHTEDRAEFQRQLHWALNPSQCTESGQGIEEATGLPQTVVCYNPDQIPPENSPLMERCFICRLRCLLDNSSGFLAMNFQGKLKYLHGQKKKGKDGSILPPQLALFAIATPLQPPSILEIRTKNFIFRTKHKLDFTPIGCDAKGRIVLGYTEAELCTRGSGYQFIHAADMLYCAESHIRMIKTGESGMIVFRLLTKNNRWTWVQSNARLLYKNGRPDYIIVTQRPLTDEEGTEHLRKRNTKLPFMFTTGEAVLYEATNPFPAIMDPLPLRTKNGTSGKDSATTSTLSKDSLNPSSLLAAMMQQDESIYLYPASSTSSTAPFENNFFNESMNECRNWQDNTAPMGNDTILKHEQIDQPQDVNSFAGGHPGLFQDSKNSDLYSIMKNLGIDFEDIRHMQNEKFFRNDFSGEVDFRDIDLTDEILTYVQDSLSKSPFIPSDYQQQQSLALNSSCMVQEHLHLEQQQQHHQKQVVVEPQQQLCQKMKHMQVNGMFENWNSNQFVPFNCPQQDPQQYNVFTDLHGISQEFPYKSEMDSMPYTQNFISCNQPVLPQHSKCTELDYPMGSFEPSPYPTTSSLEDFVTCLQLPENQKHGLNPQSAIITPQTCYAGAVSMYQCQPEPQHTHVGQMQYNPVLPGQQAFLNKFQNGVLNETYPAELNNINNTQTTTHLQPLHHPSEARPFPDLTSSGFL
# Assay: hAHR nuclear translocation assay
# Assay type: cell-based
# Details: Jump-In T-REx HEK293 cells expressing AhR-EGFP; 45 min incubation; ratio of EGFP intensity in nuclear over cytosol; 20-point curve
# Outline: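 HEK293 cells with doxycycline-induced AhR-EGFP fusion treated 45 min at 37° C with compound (20-point 1:2 series, 0.2% DMSO) in DMEM/0.1% BSA, then methanol-fixed. Nuclear-to-cytosolic EGFP ratio imaged by high-content microscopy and fitted to a 4-parameter logistic for agonist potency.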
row,SMILES,EC50 [nM]
1,"CC1CCc2c1c(O)c(C(=O)Nc1ncc(F)cn1)c(=O)n2C (single isomer, unassigned) [Example 96, N-(5-Fluoropyrimidin-2-yl)-4-hydroxy-1,5-dimethyl-2-oxo-6,7-dihydro-5H-cyclopenta[b]pyridine-3-carboxamide]",0.6
2,"CC1CCc2c1c(O)c(C(=O)Nc1ccc(F)cn1)c(=O)n2C (centres unmarked) [Example 26, N-(5-Fluoro-2-pyridyl)-4-hydroxy-1,5-dimethyl-2-oxo-6,7-dihydro-5H-cyclopenta[b]pyridine-3-carboxamide]",2.87
3,"CC1CCc2c1c(O)c(C(=O)Nc1ccccn1)c(=O)n2C (single isomer, unassigned) [Example 90, 4-Hydroxy-1,5-dimethyl-2-oxo-N-(2-pyridyl)-6,7-dihydro-5H-cyclopenta[b]pyridine-3-carboxamide]",2.89
4,"CC1CCc2c1c(O)c(C(=O)Nc1ncc(F)cn1)c(=O)n2C (single isomer, unassigned) [Example 95, N-(5-Fluoropyrimidin-2-yl)-4-hydroxy-1,5-dimethyl-2-oxo-6,7-dihydro-5H-cyclopenta[b]pyridine-3-carboxamide]",1.21
5,"CC1CCc2c1cc(C(=O)NC1CCCC1)c(=O)n2C (single isomer, unassigned) [Example 61, N-Cyclopentyl-1,5-dimethyl-2-oxo-6,7-dihydro-5H-cyclopenta[b]pyridine-3-carboxamide]",42
6,"CC1CCc2c1c(O)c(C(=O)Nc1ccsn1)c(=O)n2C (single isomer, unassigned) [Example 38, 4-Hydroxy-N-isothiazol-3-yl-1,5-dimethyl-2-oxo-6,7-dihydro-5H-cyclopenta[b]pyridine-3-carboxamide]",1.01

# Continued, values first:
row,EC50 [nM],SMILES
1,9.41,"Cn1c2c(c(O)c(C(=O)Nc3ccccn3)c1=O)CC(C)(C)C2 [Example 42, 4-Hydroxy-1,6,6-trimethyl-2-oxo-N-(2-pyridyl)-5,7-dihydrocyclopenta[b]pyridine-3-carboxamide]"
2,0.5,"C[C@H]1CCc2c1cc(C(=O)Nc1ccccc1)c(=O)n2C [Example 67, (5S)-1,5-Dimethyl-2-oxo-N-phenyl-6,7-dihydro-5H-cyclopenta[b]pyridine-3-carboxamide]"
3,1.83,"CC1CCc2c1cc(C(=O)Nc1ccc(F)cn1)c(=O)n2C (single isomer, unassigned) [Example 57, N-(5-Fluoro-2-pyridyl)-1,5-dimethyl-2-oxo-6,7-dihydro-5H-cyclopenta[b]pyridine-3-carboxamide]"
4,8.27,"Cc1nc2ccc(NC(=O)c3cc4c(n(C)c3=O)CCC(C)(C)C4)cc2o1 [Example 50, 1,6,6-Trimethyl-N-(2-methyl-1,3-benzoxazol-6-yl)-2-oxo-7,8-dihydro-5H-quinoline-3-carboxamide]"
5,0.973,"Cn1c2c(c(O)c(C(=O)Nc3ncc(F)cn3)c1=O)C(C)(C)CC2 [Example 43, N-(5-Fluoropyrimidin-2-yl)-4-hydroxy-1,5,5-trimethyl-2-oxo-6,7-dihydrocyclopenta[b]pyridine-3-carboxamide]"

# Reference: US12037322B2, “AHR agonists” (Eli Lilly and Company, priority 2021, dated 2024)
